Assay results: patent US11566007B2, “Ras inhibitors” (Revolution Medicines, Inc., priority 2019, dated 2023)

What was measured:
KRAS G12V = KRAS G12V (Homo sapiens (Human), UniProt P01116+P62937, G12V); assay: Ras-Raf (BRAF RBD) disruption / FRET / MOA assay, KRAS G12V; assay type: biochemical; conditions: read-out: IC50* KRAS G12V FRET data
Outline: (§1)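 A 10-point, 3-fold dilution series topping at 30 μM final was incubated 3 h at 25° C with the Ras/cyclophilin A/BRAF RBD mixture.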

K-Ras G13C = K-Ras G13C (Homo sapiens (Human), UniProt P01116+P62937, G13C); assay: Ras-Raf (BRAF RBD) disruption / FRET / MOA assay, KRAS G13C; assay type: biochemical; conditions: KRAS G13C; Ras-Raf disruption/FRET/MOA assay; read-out: IC50* KRAS G13C FRET data
Sequence of K-Ras G13C (P01116-2 other isoform, or with tags, fused parts or gaps G13C): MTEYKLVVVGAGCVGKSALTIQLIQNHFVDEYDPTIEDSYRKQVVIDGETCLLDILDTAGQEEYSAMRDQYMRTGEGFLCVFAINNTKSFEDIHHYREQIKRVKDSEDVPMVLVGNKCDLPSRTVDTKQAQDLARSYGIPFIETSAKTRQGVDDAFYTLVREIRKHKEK
Sequence of K-Ras G13C (P62937 whole entry): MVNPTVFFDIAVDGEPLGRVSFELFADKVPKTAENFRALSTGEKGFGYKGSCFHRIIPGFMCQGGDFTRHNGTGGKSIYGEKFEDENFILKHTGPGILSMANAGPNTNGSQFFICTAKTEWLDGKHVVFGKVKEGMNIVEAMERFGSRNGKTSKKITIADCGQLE
Outline: as §1

KRAS G12S = KRAS G12S (Homo sapiens (Human), UniProt P01116+P62937, G12S); assay: Ras-Raf (BRAF RBD) disruption / FRET / MOA assay, KRAS G12S; assay type: biochemical; conditions: Ras-Raf disruption/FRET/MOA assay; class symbols; read-out: KRAS G12S FRET data IC50
Sequence of KRAS G12S (P01116-2 other isoform, or with tags, fused parts or gaps G12S): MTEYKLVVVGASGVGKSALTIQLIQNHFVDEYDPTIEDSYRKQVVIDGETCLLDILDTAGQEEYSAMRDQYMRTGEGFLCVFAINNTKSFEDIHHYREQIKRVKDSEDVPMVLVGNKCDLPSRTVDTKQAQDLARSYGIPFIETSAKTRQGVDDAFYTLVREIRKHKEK
Sequence of KRAS G12S (P62937 whole entry): as the sequence (P62937 whole entry) above
Outline: as §1

KRAS G13D = KRAS G13D (Homo sapiens (Human), UniProt P01116+P62937, G13D); assay: Ras-Raf (BRAF RBD) disruption / FRET / MOA assay, KRAS G13D; assay type: biochemical; conditions: read-out: IC50* KRAS G13D FRET data
Sequence of KRAS G13D (P01116-2 other isoform, or with tags, fused parts or gaps G13D): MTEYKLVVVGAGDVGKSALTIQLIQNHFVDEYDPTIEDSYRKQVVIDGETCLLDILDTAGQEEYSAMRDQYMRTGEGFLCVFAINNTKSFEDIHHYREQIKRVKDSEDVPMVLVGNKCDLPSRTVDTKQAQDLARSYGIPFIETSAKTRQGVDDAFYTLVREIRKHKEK
Sequence of KRAS G13D (P62937 whole entry): as the sequence (P62937 whole entry) above
Outline: as §1

K-Ras G12C = K-Ras G12C (Homo sapiens (Human), UniProt P01116+P62937, G12C); assay: Ras-Raf (BRAF RBD) disruption / FRET / MOA assay, KRAS G12C; assay type: biochemical; conditions: KRAS G12C; Ras-Raf disruption/FRET/MOA assay; read-out: IC50* KRAS G12C FRET data
Sequence of K-Ras G12C (P01116-2 other isoform, or with tags, fused parts or gaps G12C): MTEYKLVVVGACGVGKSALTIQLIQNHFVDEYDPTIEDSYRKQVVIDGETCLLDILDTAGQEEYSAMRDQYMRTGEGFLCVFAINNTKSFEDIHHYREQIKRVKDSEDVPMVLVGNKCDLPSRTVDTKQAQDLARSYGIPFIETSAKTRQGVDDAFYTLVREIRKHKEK
Sequence of K-Ras G12C (P62937 whole entry): as the sequence (P62937 whole entry) above
Outline: as §1

[1] = test system: NCI-H358 cells (K-Ras G12C); assay: Potency assay: pERK in NCI-H358 cells; assay type: cell-based, human; conditions: Homo sapiens, NCI-H358; H358 KRAS G12C; read-out: pERK EC50
Outline: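 Inhibition of cellular pERK after a 4 h treatment, detected by AlphaLISA or In-Cell Western. IC50 from a four-parameter concentration-response fit.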

NRAS G12C = NRAS G12C (Homo sapiens (Human), UniProt P01111+P62937, G12C); assay: Ras-Raf (BRAF RBD) disruption / FRET / MOA assay, NRAS G12C; assay type: biochemical; conditions: read-out: IC50* NRAS G12C FRET data
Sequence of NRAS G12C (P01111 whole entry G12C): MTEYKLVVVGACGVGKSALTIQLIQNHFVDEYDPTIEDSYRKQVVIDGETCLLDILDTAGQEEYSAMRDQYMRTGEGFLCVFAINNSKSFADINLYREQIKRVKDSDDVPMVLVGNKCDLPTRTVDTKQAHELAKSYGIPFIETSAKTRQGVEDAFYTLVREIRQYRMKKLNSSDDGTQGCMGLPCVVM
Sequence of NRAS G12C (P62937 whole entry): as the sequence (P62937 whole entry) above
Outline: as §1

NCI-H358 (K-Ras G12C) = assay: CellTiter-Glo cell viability assay, NCI-H358; assay type: cell-based, human; conditions: Homo sapiens, NCI-H358, 120 h, NCI-H358, 5-day treatment; class symbols; read-out: Additional H358 Cell Viability assay data (K-Ras G12C, IC50)
Outline: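 Steps: compound dispensed into wells holding cells; incubation to day 5; ~30 min room-temperature equilibration; luminescence read; sample signal divided by mean DMSO signal, times 100; four-parameter logistic curve fit.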

KRAS WT = KRAS WT (Homo sapiens (Human), UniProt P01116+P62937); assay: Ras-Raf (BRAF RBD) disruption / FRET / MOA assay, KRAS WT; assay type: biochemical; conditions: read-out: IC50* KRAS WT FRET data
Sequence of KRAS WT (P01116-2 other isoform, or with tags, fused parts or gaps): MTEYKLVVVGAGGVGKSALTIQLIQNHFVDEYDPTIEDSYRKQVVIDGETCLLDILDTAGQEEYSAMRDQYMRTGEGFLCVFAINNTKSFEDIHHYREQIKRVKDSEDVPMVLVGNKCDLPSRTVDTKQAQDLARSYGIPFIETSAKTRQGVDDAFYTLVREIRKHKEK
Sequence of KRAS WT (P62937 whole entry): as the sequence (P62937 whole entry) above
Outline: as §1

KRAS G12D = KRAS G12D (Homo sapiens (Human), UniProt P01116+P62937, G12D); assay: Ras-Raf (BRAF RBD) disruption / FRET / MOA assay, KRAS G12D; assay type: biochemical; conditions: Ras-Raf disruption/FRET/MOA assay; class symbols; read-out: KRAS G12D FRET data IC50
Sequence of KRAS G12D (P01116-2 other isoform, or with tags, fused parts or gaps G12D): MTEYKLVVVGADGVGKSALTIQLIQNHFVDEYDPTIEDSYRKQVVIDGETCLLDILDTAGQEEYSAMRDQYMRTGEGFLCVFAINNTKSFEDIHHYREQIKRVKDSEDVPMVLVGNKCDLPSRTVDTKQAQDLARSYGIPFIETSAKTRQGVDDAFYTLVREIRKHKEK
Sequence of KRAS G12D (P62937 whole entry): as the sequence (P62937 whole entry) above
Outline: as §1

Sequence of KRAS G12V (P01116-2 other isoform, or with tags, fused parts or gaps G12V): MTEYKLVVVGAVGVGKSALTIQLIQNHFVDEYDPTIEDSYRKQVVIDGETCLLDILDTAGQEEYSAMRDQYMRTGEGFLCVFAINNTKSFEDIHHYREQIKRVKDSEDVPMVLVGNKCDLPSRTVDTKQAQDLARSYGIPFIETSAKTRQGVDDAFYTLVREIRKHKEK
Sequence of KRAS G12V (P62937 whole entry): as the sequence (P62937 whole entry) above

CCn1c(-c2cccnc2[C@H](C)OC)c2c3cc(ccc31)-c1cc(O)cc(c1)C[C@H](NC(=O)[C@H](C(C)C)N(C)C(=O)N1CCCN(C(=O)/C=C/CN(C)C)CC1)C(=O)N1CCC[C@H](N1)C(=O)OCC(C)(C)C2 (atropisomer, axis not shown) [Example A264]
IC50 (KRAS G12V): 10 to 100 nM
IC50 (K-Ras G13C): 10 to 100 nM
IC50 (KRAS G12S): 10 to 100 nM
IC50 (KRAS G13D): 10 to 100 nM
IC50 (K-Ras G12C): 10 to 100 nM
EC50 [1]: < 5000 nM
IC50 (NRAS G12C): 10 to 100 nM
IC50 (NCI-H358 (K-Ras G12C)): 10 to 100 nM
IC50 (KRAS WT): 10 to 100 nM
IC50 (KRAS G12D): 10 to 100 nM

C=CC(=O)N1CCCN(C(=O)N(C)[C@H](C(=O)N[C@H]2Cc3cc(O)cc(c3)-c3ccc4c(c3)c(c(-c3cccnc3[C@H](C)OC)n4CC)CC(C)(C)COC(=O)[C@@H]3CCCN(N3)C2=O)C(C)C)CC1 (atropisomer, axis not shown) [Example A265]
IC50 (KRAS G12V): 10 to 100 nM
IC50 (K-Ras G13C): 10 to 100 nM
IC50 (KRAS G12S): 10 to 100 nM
IC50 (KRAS G13D): 10 to 100 nM
IC50 (K-Ras G12C): 10 to 100 nM
EC50 [1]: < 5000 nM
IC50 (NRAS G12C): 10 to 100 nM
IC50 (NCI-H358 (K-Ras G12C)): 10 to 100 nM
IC50 (KRAS WT): 10 to 100 nM
IC50 (KRAS G12D): 10 to 100 nM

CCn1c(-c2cccnc2[C@H](C)OC)c2c3cc(ccc31)-c1cc(O)cc(c1)C[C@H](NC(=O)[C@H](C(C)C)N1CCC3(CCN(C(=O)/C=C/CN(C)C)CC3)C1=O)C(=O)N1CCC[C@H](N1)C(=O)OCC(C)(C)C2 (atropisomer, axis not shown) [Example A267]
IC50 (KRAS G12V): 100 to 1000 nM
IC50 (K-Ras G13C): 10 to 100 nM
IC50 (KRAS G12S): 100 to 1000 nM
IC50 (KRAS G13D): 10 to 100 nM
IC50 (K-Ras G12C): 10 to 100 nM
EC50 [1]: < 5000 nM
IC50 (NRAS G12C): 10 to 100 nM
IC50 (NCI-H358 (K-Ras G12C)): 10 to 100 nM
IC50 (KRAS WT): 100 to 1000 nM
IC50 (KRAS G12D): 1000 to 10000 nM

CCn1c(-c2cccnc2[C@H](C)OC)c2c3cc(ccc31)-c1cc(O)cc(c1)C[C@H](NC(=O)[C@H](C(C)C)N1CC[C@]3(CCN(C(=O)/C=C/CN(C)C)C3)C1=O)C(=O)N1CCC[C@H](N1)C(=O)OCC(C)(C)C2 (atropisomer, axis not shown) [Example A268]
IC50 (KRAS G12V): 10 to 100 nM
IC50 (K-Ras G13C): 10 to 100 nM
IC50 (KRAS G12S): 10 to 100 nM
IC50 (KRAS G13D): 10 to 100 nM
IC50 (K-Ras G12C): < 10 nM
EC50 [1]: < 5000 nM
IC50 (NRAS G12C): < 10 nM
IC50 (NCI-H358 (K-Ras G12C)): 10 to 100 nM
IC50 (KRAS WT): 10 to 100 nM
IC50 (KRAS G12D): 10 to 100 nM

CCn1c(-c2cccnc2[C@H](C)OC)c2c3cc(ccc31)-c1cc(O)cc(c1)C[C@H](NC(=O)[C@H](C(C)C)N1CC[C@@]3(CCN(C(=O)/C=C/CN(C)C)C3)C1=O)C(=O)N1CCC[C@H](N1)C(=O)OCC(C)(C)C2 (atropisomer, axis not shown) [Example A269]
IC50 (KRAS G12V): 100 to 1000 nM
IC50 (K-Ras G13C): 100 to 1000 nM
IC50 (KRAS G12S): 100 to 1000 nM
IC50 (KRAS G13D): 100 to 1000 nM
IC50 (K-Ras G12C): 10 to 100 nM
EC50 [1]: < 5000 nM
IC50 (NRAS G12C): 10 to 100 nM
IC50 (NCI-H358 (K-Ras G12C)): 10 to 100 nM
IC50 (KRAS WT): 100 to 1000 nM
IC50 (KRAS G12D): 100 to 1000 nM

CCn1c(-c2cccnc2[C@H](C)OC)c2c3cc(ccc31)-c1cc(O)cc(c1)C[C@H](NC(=O)[C@H](C(C)C)N1CCC3(CN(C(=O)/C=C/CN(C)C)C3)C1=O)C(=O)N1CCC[C@H](N1)C(=O)OCC(C)(C)C2 (atropisomer, axis not shown) [Example A270]
IC50 (KRAS G12V): 100 to 1000 nM
IC50 (K-Ras G13C): < 10 nM
IC50 (KRAS G12S): 10 to 100 nM
IC50 (KRAS G13D): 10 to 100 nM
IC50 (K-Ras G12C): < 10 nM
EC50 [1]: < 5000 nM
IC50 (NRAS G12C): < 10 nM
IC50 (NCI-H358 (K-Ras G12C)): 10 to 100 nM
IC50 (KRAS WT): 10 to 100 nM
IC50 (KRAS G12D): 100 to 1000 nM

C/C=C/S(=O)(=O)N1CC[C@H](C(=O)N(C)[C@H](C(=O)N[C@H]2Cc3cc(O)cc(c3)-c3ccc4c(c3)c(c(-c3cccnc3[C@H](C)OC)n4CC)CC(C)(C)COC(=O)[C@@H]3CCCN(N3)C2=O)C(C)C)C1 (atropisomer, axis not shown) [Example A280]
IC50 (KRAS G12V): 100 to 1000 nM
IC50 (K-Ras G13C): 10 to 100 nM
IC50 (KRAS G12S): 100 to 1000 nM
IC50 (KRAS G13D): 100 to 1000 nM
IC50 (K-Ras G12C): 10 to 100 nM
EC50 [1]: < 5000 nM
IC50 (NRAS G12C): 100 to 1000 nM
IC50 (NCI-H358 (K-Ras G12C)): 10 to 100 nM
IC50 (KRAS WT): 10 to 100 nM
IC50 (KRAS G12D): 1000 to 10000 nM
